In patent publication US6852687B2, “Method for inhibiting apoptosis” (Sucampo AG, priority 2001, dated 2005):

How the values were obtained:
[1] = system: Conjunctival epithelial cell line CCL-20.2; assay: Caspase-3 activity of conjunctival epithelial cells incubated in serum-free medium (Z-DEVD-AFC fluorescence); assay type: cell-based; conditions: for caspase-3 activity compared with the control group: serum-free, 24 hours, n=3
Procedure: (§1) Conjunctival epithelial cell line CCL-20.2 (obtained from American Type Culture Collection) was incubated in serum-containing medium 199 (Gibco) until 60-70% of confluent. The cells were washed with a serum-free medium and were resuspended in serum-free medium 199 containing albumin 1 mg/ml or serum-free medium 199 containing no albumin. The cells were then incubated for 24 hours and collected.
The caspase-3 activities of the collected cells were determined. The cells were lysed in a buffer solution (50 mM HEPES, 1 mM dithiothreitol and 0.1 mM EDTA (pH7.4)) containing 0.1% CHAPS (3-[(3-cholamidopropyl) dimethylammonio]-2-hydroxy-1-propanesulfonic acid) and were centrifuged to collect the supernatant. The caspase activity in the supernatant was determined with 0.1 mM fluorescence substrate (Z-DEVD-AFC) by means of fluorescence intensity measurement(em:505 nm, ex:400 nm) (n=4).
Conjunctival epithelial cell line CCL-20.2 (obtained from American Type Culture Collection) was incubated in serum-containing medium 199 (Gibco) until 70-80% of confluent. The cells were washed with serum-free medium and resuspended in serum-free medium 199 containing albumin 3 mg/ml; albumin 3 mg/ml+EGF10 ng/ml; albumin 3 mg/ml+vitamin A 0.1 μg/ml; or albumin 3 mg/ml+EGF10 ng/ml+vitamin A 0.1 μg/ml. […]
The caspase-3 activities of the collected cells were measured. […] The caspase activity in the supernatant was determined with 0.1 mM fluorescence substrate (Z-DEVD-AFC) by means of fluorescence intensity measurement(em:505 nm, ex:400 nm) (n=3). […]
The caspase-3 activities of the collected cells were measured. […] The caspase activity in the supernatant was determined with 0.1 mM fluorescence substrate (Z-DEVD-AFC) by means of fluorescence intensity measurement (em:505 nm, ex:400 nm) (n=3). […]
The caspase-3 activities of the collected cells were measured. […] The caspase activity in the supernatant was determined with 0.1 mM fluorescence substrate (Z-DEVD-AFC) by means of fluorescence intensity measurement (em: 505 nm, ex: 400 nm) (n=3).

[2] = system: Conjunctival epithelial cell line CCL-20.2; assay: DNA fragmentation (Cell Death Detection ELISAPLUS); assay type: cell-based; conditions: Example 1; albumin 1 mg/ml in serum-free medium 199, 24 hours, n=4; measured at 405 nm; control without albumin 0.111 ± 0.018
Procedure: as §1
DNA fragmentation was determined with the Cell Death Detection ELISAPLUS (Roche Diagnostics Corporation, Basel, Switzerland). 2×10^4 cells were lysed with 0.1 ml of buffering solution and centrifuged to collect the supernatant. The obtained supernatant as well as positive and background controls, each in the amount of 20 μl, was respectively added to a plate coated with streptavidin. After adding an immunologic reagent (incubation buffer: antihistone-biotin: anti-DNA-POD=18:1:1) 80 μl to each plate, it was coated with a film and shaken at 300 rpm for 2 hours at room temperature. Then the plate was washed with incubation buffer 250-300 μl for 3 times. After adding substrate (ABTS) solution 100 μl to the plate, it was shaken at 250 rpm for 10-20 minutes at room temperature. The measurement was 405 nm (reference wavelength 492 nm)(n=4).

albumin
Caspase-3 activity mean ± S.E. ([1]; Example 1, albumin 1 mg/ml in serum-free medium 199, 24 hours, n=4, control without albumin 0.744 ± 0.246): 0.510 ± 0.191 n mol/hr/mg protein
caspase-3 activity compared with the control group ([1]; Example 2, FIG. 1, albumin 3 mg/ml, EGF 10 ng/ml, vitamin A 0.1 μg/ml): significantly lower
caspase-3 activity compared with the control group ([1]; Example 3, FIG. 2, albumin 1 mg/ml, TGFα 10 ng/ml, TGFβ 10 ng/ml): significantly lower
DNA fragmentation mean ± S.E. [2]: 0.096 ± 0.047
